How the values were obtained:
corn = experiment: Test B pre-/postemergence herbicide test; format: in vivo, Zea mays
How it was run: (§1)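 Flooded paddy rice and barnyardgrass were treated at the 2-leaf stage; upland plantings received compound either on sown seed or on 1- to 4-leaf seedlings. All were kept 13–15 days in a greenhouse and scored visually, 0–100, relative to untreated plants.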

barnyardgrass [1] = experiment: Test B pre-/postemergence herbicide test; format: in vivo, Echinochloa crus-galli
How it was run: (§2)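 Seeds were planted and treated preemergence with compounds formulated in a non-phytotoxic solvent mixture containing surfactant, while plants at the 1- to 4-leaf stage (2 to 18 cm) received postemergence sprays. Flooded paddy plants were grown to the 2-leaf stage. After 13 to 15 days in a greenhouse, injury was visually rated 0–100 against untreated controls.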

lambsquarters = experiment: Test B pre-/postemergence herbicide test; format: in vivo, Chenopodium album
How it was run: as §1

barnyardgrass [2] = experiment: Test B flooded paddy test; format: in vivo, Echinochloa crus-galli; conditions: 1000 g ai/ha, scale 0 to 100 (0 no effect, 100 complete control)
How it was run: (§3)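 Postemergence plants were sprayed with formulated test chemicals at 2 to 18 cm height (1- to 4-leaf stage); paddy species were grown to the 2-leaf stage. After 13 to 15 days in a greenhouse, injury was rated visually against untreated controls on a 0–100 scale (0 = no effect, 100 = complete control).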

morningglory = experiment: Test B pre-/postemergence herbicide test; format: in vivo, Ipomoea coccinea
How it was run: as §2

cocklebur = experiment: Test B pre-/postemergence herbicide test; format: in vivo, Xanthium strumarium
How it was run: as §2

large crabgrass = experiment: Test B pre-/postemergence herbicide test; format: in vivo, Digitaria sanguinalis
How it was run: as §1

Surinam grass = experiment: Test B pre-/postemergence herbicide test; format: in vivo, Urochloa decumbens
How it was run: as §1

pigweed = experiment: Test B pre-/postemergence herbicide test; format: in vivo, Amaranthus retroflexus
How it was run: as §1

rice [3] = experiment: Test B flooded paddy test; format: in vivo, Oryza sativa; conditions: 1000 g ai/ha, scale 0 to 100 (0 no effect, 100 complete control)
How it was run: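 After treating 2-leaf paddy plants or 2–18 cm postemergence plants (1 to 4 leaves) with formulated chemical, researchers kept them in a greenhouse for 13–15 days. Effects were judged visually versus controls: 0 indicates none, 100 total control.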

rice [4] = experiment: Test B pre-/postemergence herbicide test; format: in vivo, Oryza sativa; conditions: 0 = no effect, 100 = complete control, preemergence; for Rice plant response rating (0 to 100 scale): 125 g ai/ha; for Plant response rating, Rice: 500 g ai/ha, visual rating
How it was run: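 Evaluation is visual, comparing treated with control plants on a scale where 0 means no effect and 100 means full control. Treatments were preemergence, or postemergence on seedlings 2–18 cm tall, and held 13–15 days in the greenhouse.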

wheat = experiment: Test B postemergence herbicide test; format: in vivo, Triticum aestivum; set-up: key to Wheat plant response rating: 0 = no effect, 100 = complete control
How it was run: (§4)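 Greenhouse test; postemergence application to plants at 1–4 leaves (2–18 cm); paddy species at 2 leaves; evaluated visually vs controls at 13–15 days; scale 0–100 (100 = complete control).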

velvetleaf = experiment: Test B pre-/postemergence herbicide test; format: in vivo, Abutilon theophrasti
How it was run: as §1

giant foxtail = experiment: Test B pre-/postemergence herbicide test; format: in vivo, Setaria faberi
How it was run: as §1

wild oat = experiment: Test B postemergence herbicide test; format: in vivo, Avena fatua
How it was run: as §4

[5] = system: small flower umbrella sedge; experiment: Test B flooded paddy test; format: in vivo, Cyperus difformis; conditions: 1000 g ai/ha, scale 0 to 100 (0 no effect, 100 complete control)
How it was run: as §3

blackgrass = experiment: Test B postemergence herbicide test; format: in vivo, Alopecurus myosuroides
How it was run: as §3

ducksalad = experiment: Test B flooded paddy test; format: in vivo, Heteranthera limosa; conditions: 1000 g ai/ha, scale 0 to 100 (0 no effect, 100 complete control)
How it was run: as §3

[6] = 125 g ai/ha; 0 = no effect, 100 = complete control; preemergence
[7] = 500 g ai/ha; visual rating, 0 = no effect, 100 = complete control; preemergence
[8] = postemergence, 125 g ai/ha; visual rating, scale 0 (no effect) to 100 (complete control)
[9] = postemergence, 500 g ai/ha; scale 0 to 100, 0 is no effect, 100 is complete control
[10] = postemergence, 500 g ai/ha; visual rating, scale 0 (no effect) to 100 (complete control)
[11] = 125 g ai/ha; visual rating, scale 0 (no effect) to 100 (complete control); postemergence

CCOC(=O)c1cc(NC(=O)c2cc(C(C)(C)C)nn2CC)c(F)cc1F [Compound 250]
Corn plant response rating (0 to 100 scale) (corn; [6]): 0 | Plant response rating, Corn (corn; [7]): 0 | Corn plant response rating (corn; [8]): 20 | Corn plant response rating (corn; [9]): 30 | Barnyardgrass plant response rating (0 to 100 scale) (barnyardgrass [1]; [6]): 0 | Plant response rating, Barnyardgrass (barnyardgrass [1]; [7]): 10 | Barnyardgrass plant response rating (barnyardgrass [1]; [8]): 20 | Barnyardgrass plant response rating (barnyardgrass [1]; [10]): 20 | Lambsquarters plant response rating (0 to 100 scale) (lambsquarters; [6]): 0 | Lambsquarters plant response rating (lambsquarters; [8]): 0 | Lambsquarters plant response rating (lambsquarters; [9]): 40 | Barnyardgrass plant response rating (barnyardgrass [2]): 0 | Morningglory plant response rating (0 to 100 scale) (morningglory; [6]): 0 | Plant response rating, Morningglory (morningglory; [7]): 0 | Morningglory plant response rating (morningglory; [8]): 20 | Morningglory plant response rating (morningglory; [9]): 30 | Cocklebur plant response rating (0 to 100 scale) (cocklebur; [6]): 0 | Plant response rating, Cocklebur (cocklebur; [7]): 0 | Cocklebur plant response rating (cocklebur; [8]): 30 | Cocklebur plant response rating (cocklebur; [10]): 40 | Crabgrass, Large plant response rating (0 to 100 scale) (large crabgrass; [6]): 0 | Plant response rating, Crabgrass, Large (large crabgrass; [7]): 10 | Crabgrass, Large plant response rating (large crabgrass; [8]): 20 | Crabgrass, Large plant response rating (large crabgrass; [9]): 20 | Surinam Grass plant response rating (0 to 100 scale) (Surinam grass; [6]): 10 | Plant response rating, Surinam Grass (Surinam grass; [7]): 30 | Surinam Grass plant response rating (Surinam grass; [8]): 10 | Surinam Grass plant response rating (Surinam grass; [9]): 20 | Pigweed plant response rating (0 to 100 scale) (pigweed; [6]): 0 | Pigweed plant response rating (pigweed; [8]): 30 | Pigweed plant response rating (pigweed; [9]): 70 | Rice plant response rating (rice [3]): 50 | Rice plant response rating (0 to 100 scale) (rice [4]): 0 | Plant response rating, Rice (rice [4]): 10 | Wheat plant response rating (wheat; [8]): 20 | Wheat plant response rating (wheat; [9]): 40 | Velvetleaf plant response rating (0 to 100 scale) (velvetleaf; [6]): 0 | Plant response rating, Velvetleaf (velvetleaf; [7]): 20 | Velvetleaf plant response rating (velvetleaf; [8]): 20 | Velvetleaf plant response rating (velvetleaf; [9]): 30 | Foxtail, Giant plant response rating (0 to 100 scale) (giant foxtail; [6]): 0 | Plant response rating, Foxtail, Giant (giant foxtail; [7]): 10 | Foxtail, Giant plant response rating (giant foxtail; [8]): 20 | Foxtail, Giant plant response rating (giant foxtail; [9]): 30 | Oat, Wild plant response rating (wild oat; [8]): 20 | Oat, Wild plant response rating (wild oat; [9]): 40 | Sedge, Umbrella plant response rating [5]: 70 | Blackgrass plant response rating (blackgrass; [8]): 10 | Blackgrass plant response rating (blackgrass; [10]): 40 | Ducksalad plant response rating (ducksalad): 40

CCN(CC)C(=O)c1cc(NC(=O)c2cc(C(C)(C)C)nn2CC)c(F)cc1F [Compound 253]
Corn plant response rating (0 to 100 scale) (corn; [6]): 0 | Plant response rating, Corn (corn; [7]): 0 | Corn plant response rating (corn; [8]): 0 | Corn plant response rating (corn; [9]): 0 | Barnyardgrass plant response rating (0 to 100 scale) (barnyardgrass [1]; [6]): 0 | Plant response rating, Barnyardgrass (barnyardgrass [1]; [7]): 10 | Barnyardgrass plant response rating (barnyardgrass [1]; [8]): 0 | Barnyardgrass plant response rating (barnyardgrass [1]; [10]): 10 | Lambsquarters plant response rating (0 to 100 scale) (lambsquarters; [6]): 0 | Lambsquarters plant response rating (lambsquarters; [8]): 20 | Lambsquarters plant response rating (lambsquarters; [9]): 30 | Barnyardgrass plant response rating (barnyardgrass [2]): 0 | Morningglory plant response rating (0 to 100 scale) (morningglory; [6]): 0 | Plant response rating, Morningglory (morningglory; [7]): 0 | Morningglory plant response rating (morningglory; [8]): 0 | Morningglory plant response rating (morningglory; [9]): 30 | Cocklebur plant response rating (0 to 100 scale) (cocklebur; [6]): 0 | Plant response rating, Cocklebur (cocklebur; [7]): 0 | Cocklebur plant response rating (cocklebur; [8]): 10 | Cocklebur plant response rating (cocklebur; [10]): 20 | Crabgrass, Large plant response rating (0 to 100 scale) (large crabgrass; [6]): 20 | Crabgrass, Large plant response rating (large crabgrass; [8]): 0 | Crabgrass, Large plant response rating (large crabgrass; [9]): 0 | Surinam Grass plant response rating (0 to 100 scale) (Surinam grass; [6]): 10 | Plant response rating, Surinam Grass (Surinam grass; [7]): 30 | Surinam Grass plant response rating (Surinam grass; [8]): 0 | Surinam Grass plant response rating (Surinam grass; [9]): 0 | Pigweed plant response rating (pigweed; [8]): 20 | Pigweed plant response rating (pigweed; [9]): 30 | Rice plant response rating (rice [3]): 50 | Rice plant response rating (0 to 100 scale) (rice [4]): 0 | Plant response rating, Rice (rice [4]): 0 | Wheat plant response rating (wheat; [8]): 20 | Wheat plant response rating (wheat; [9]): 30 | Velvetleaf plant response rating (0 to 100 scale) (velvetleaf; [6]): 0 | Plant response rating, Velvetleaf (velvetleaf; [7]): 20 | Velvetleaf plant response rating (velvetleaf; [8]): 10 | Velvetleaf plant response rating (velvetleaf; [9]): 10 | Foxtail, Giant plant response rating (0 to 100 scale) (giant foxtail; [6]): 0 | Plant response rating, Foxtail, Giant (giant foxtail; [7]): 30 | Foxtail, Giant plant response rating (giant foxtail; [8]): 0 | Foxtail, Giant plant response rating (giant foxtail; [9]): 0 | Oat, Wild plant response rating (wild oat; [8]): 20 | Oat, Wild plant response rating (wild oat; [9]): 30 | Sedge, Umbrella plant response rating [5]: 20 | Blackgrass plant response rating (blackgrass; [8]): 20 | Blackgrass plant response rating (blackgrass; [10]): 20 | Ducksalad plant response rating (ducksalad): 60

CCn1nc(C(C)(C)C)cc1C(=O)Nc1cc(OC)ccc1OC [Compound 297]
Corn plant response rating (0 to 100 scale) (corn; [6]): 0 | Corn plant response rating (corn; [11]): 10 | Plant response rating, Corn (corn; [7]): 0 | Corn plant response rating (corn; [9]): 100 | Barnyardgrass plant response rating (0 to 100 scale) (barnyardgrass [1]; [6]): 0 | Barnyardgrass plant response rating (barnyardgrass [1]; [11]): 10 | Plant response rating, Barnyardgrass (barnyardgrass [1]; [7]): 20 | Barnyardgrass plant response rating (barnyardgrass [1]; [9]): 20 | Lambsquarters plant response rating (0 to 100 scale) (lambsquarters; [6]): 0 | Lambsquarters plant response rating (lambsquarters; [11]): 10 | Plant response rating, Lambsquarters (lambsquarters; [7]): 80 | Lambsquarters plant response rating (lambsquarters; [9]): 20 | Barnyardgrass plant response rating (barnyardgrass [2]): 30 | Morningglory plant response rating (0 to 100 scale) (morningglory; [6]): 10 | Morningglory plant response rating (morningglory; [11]): 0 | Plant response rating, Morningglory (morningglory; [7]): 10 | Morningglory plant response rating (morningglory; [9]): 30 | Cocklebur plant response rating (0 to 100 scale) (cocklebur; [6]): 0 | Cocklebur plant response rating (cocklebur; [11]): 0 | Plant response rating, Cocklebur (cocklebur; [7]): 0 | Cocklebur plant response rating (cocklebur; [9]): 0 | Crabgrass, Large plant response rating (0 to 100 scale) (large crabgrass; [6]): 20 | Crabgrass, Large plant response rating (large crabgrass; [11]): 20 | Plant response rating, Crabgrass, Large (large crabgrass; [7]): 80 | Crabgrass, Large plant response rating (large crabgrass; [9]): 30 | Surinam Grass plant response rating (0 to 100 scale) (Surinam grass; [6]): 10 | Surinam Grass plant response rating (Surinam grass; [11]): 20 | Plant response rating, Surinam Grass (Surinam grass; [7]): 20 | Surinam Grass plant response rating (Surinam grass; [9]): 30 | Pigweed plant response rating (0 to 100 scale) (pigweed; [6]): 0 | Pigweed plant response rating (pigweed; [11]): 0 | Plant response rating, Pigweed (pigweed; [7]): 40 | Pigweed plant response rating (pigweed; [9]): 40 | Rice plant response rating (rice [3]): 20 | Rice plant response rating (0 to 100 scale) (rice [4]): 0 | Plant response rating, Rice (rice [4]): 10 | Wheat plant response rating (wheat; [11]): 0 | Wheat plant response rating (wheat; [9]): 10 | Velvetleaf plant response rating (velvetleaf; [11]): 0 | Plant response rating, Velvetleaf (velvetleaf; [7]): 10 | Velvetleaf plant response rating (velvetleaf; [9]): 10 | Foxtail, Giant plant response rating (0 to 100 scale) (giant foxtail; [6]): 10 | Foxtail, Giant plant response rating (giant foxtail; [11]): 20 | Plant response rating, Foxtail, Giant (giant foxtail; [7]): 60 | Foxtail, Giant plant response rating (giant foxtail; [9]): 30 | Oat, Wild plant response rating (wild oat; [11]): 0 | Oat, Wild plant response rating (wild oat; [9]): 20 | Sedge, Umbrella plant response rating [5]: 80 | Blackgrass plant response rating (blackgrass; [11]): 10 | Blackgrass plant response rating (blackgrass; [9]): 20 | Ducksalad plant response rating (ducksalad): 30

Source: patent publication US20060069132A1, “Azolecarboxamide herbicides” (priority 2004, published 2006)
